Molecular target: T1, recombinant human 11 β-HSD1 (Homo sapiens, UniProt P28845)
T1 construct: made in house; host or cells: E. coli
Assay: 11 β-HSD1 SPA Assay (Scintillation Proximity Assay)
Type: biochemical
Summary of the method: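 Scintillation proximity read-out of cortisol formed from 40 nM [3H]cortisone by purified recombinant human enzyme (30-100 nM, E. coli) with 1 mM NADPH, pH7.4, 2 hours at room temperature; beads with cortisol antibody and glycyrrhetinic acid stop the reaction, read next day. IC50 derived from inhibition normalised to background and maximal wells.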

T1 sequence (P28845 whole entry): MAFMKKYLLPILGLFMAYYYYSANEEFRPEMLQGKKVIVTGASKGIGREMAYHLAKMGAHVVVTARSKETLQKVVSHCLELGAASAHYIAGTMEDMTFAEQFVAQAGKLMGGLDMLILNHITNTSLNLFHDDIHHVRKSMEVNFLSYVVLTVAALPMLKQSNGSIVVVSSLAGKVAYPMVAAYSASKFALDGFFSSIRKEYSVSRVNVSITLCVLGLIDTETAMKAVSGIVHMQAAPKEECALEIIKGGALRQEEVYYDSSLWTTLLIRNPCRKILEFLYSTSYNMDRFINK

Row | SMILES | IC50 [nM]
1 | CC(C)(Oc1ccc(OC(F)(F)F)cc1)C(=O)N[C@H]1C[C@H]2CC[C@@H](C1)N2c1ccc(C(=O)NCC(F)(F)F)cn1 [Example 128, 6-(3-endo-{[2-methyl-2-({4-[(trifluoromethyl)oxy]phenyl}oxy)propanoyl]amino}-8-azabicyclo[3.2.1]oct-8-yl)-N-(2,2,2-trifluoroethyl)pyridine-3-carboxamide] | < 200
2 | CC(C)(Oc1ccc(Cl)cc1Cl)C(=O)N[C@H]1C[C@H]2CC[C@@H](C1)N2c1ccc(C(=O)NCC(F)(F)F)cc1F [Example 129, 4-[3-endo-({2-[(2,4-dichlorophenyl)oxy]-2-methylpropanoyl}amino)-8-azabicyclo[3.2.1]oct-8-yl]-3-fluoro-N-(2,2,2-trifluoroethyl)benzamide] | < 200
3 | CC(C)(Oc1ccc(Cl)cc1Cl)C(=O)N[C@H]1C[C@H]2CC[C@@H](C1)N2c1ccc(C(=O)NC2CC2)c(F)c1 [Example 130, N-cyclopropyl-4-[3-endo-({2-[(2,4-dichlorophenyl)oxy]-2-methylpropanoyl}amino)-8-azabicyclo[3.2.1]oct-8-yl]-2-fluorobenzamide] | < 200
4 | CC(C)(Oc1ccc(Cl)cc1Cl)C(=O)N[C@H]1C[C@H]2CC[C@@H](C1)N2c1ncc(C(=O)NCC(F)(F)F)cc1Cl [Example 131, 5-chloro-6-[3-endo-({2-[(2,4-dichlorophenyl)oxy]-2-methylpropanoyl}amino)-8-azabicyclo[3.2.1]oct-8-yl]-N-(2,2,2-trifluoroethyl)pyridine-3-carboxamide] | < 200
5 | CC(C)(Oc1ccc(Cl)cc1Cl)C(=O)N[C@H]1C[C@H]2CC[C@@H](C1)N2c1ccc(C(=O)NC2CC2)cc1 [Example 132, N-cyclopropyl-4-[3-endo-({2-[(2,4-dichlorophenyl)oxy]-2-methylpropanoyl}amino)-8-azabicyclo[3.2.1]oct-8-yl]benzamide] | < 200
6 | CC(C)(Oc1ccc(Cl)cc1Cl)C(=O)N[C@H]1C[C@H]2CC[C@@H](C1)N2c1ccc(NC(=O)CC(F)(F)F)cc1 [Example 133, N-{4-[3-endo-({2-[(2,4-dichlorophenyl)oxy]-2-methylpropanoyl}amino)-8-azabicyclo[3.2.1]oct-8-yl]phenyl}-3,3,3-trifluoropropanamide] | < 200
7 | CC(C)(Oc1ccc(Cl)cc1Cl)C(=O)N[C@H]1C[C@H]2CC[C@@H](C1)N2c1ccc(NC(=O)NCC(F)(F)F)cn1 [Example 134, 2-[(2,4-dichlorophenyl)oxy]-2-methyl-N-{8-[5-({[(2,2,2-trifluoroethyl)amino]carbonyl}amino)pyridin-2-yl]-8-azabicyclo[3.2.1]oct-3-endo-yl}propanamide] | < 200
8 | CC(C)(Oc1ccc(Cl)cc1Cl)C(=O)N[C@H]1C[C@H]2CC[C@@H](C1)N2c1ccc(NC(=O)NCC(F)(F)F)cc1 [Example 135, 2-[(2,4-dichlorophenyl)oxy]-2-methyl-N-{8-[4-({[(2,2,2-trifluoroethyl)amino]carbonyl}amino)phenyl]-8-azabicyclo[3.2.1]oct-3-endo-yl}propanamide] | < 200
9 | CC(C)(Oc1ccc(Cl)cc1Cl)C(=O)N[C@H]1C[C@H]2CC[C@@H](C1)N2c1ccc(NC(=O)NCC(F)(F)F)cc1Cl [Example 136, N-{8-[2-chloro-4-({[(2,2,2-trifluoroethyl)amino]carbonyl}amino)phenyl]-8-azabicyclo[3.2.1]oct-3-endo-yl}-2-[(2,4-dichlorophenyl)oxy]-2-methylpropanamide] | < 2000
10 | CC(C)(Oc1ccc(Cl)cc1Cl)C(=O)N[C@H]1C[C@H]2CC[C@@H](C1)N2c1ccc(NC(=O)NCC(F)(F)F)cc1F [Example 137, 2-[(2,4-dichlorophenyl)oxy]-N-{8-[2-fluoro-4-({[(2,2,2-trifluoroethyl)amino]carbonyl}amino)phenyl]-8-azabicyclo[3.2.1]oct-3-endo-yl}-2-methylpropanamide] | < 200
11 | CC(C)(Oc1ccc(Cl)cc1Cl)C(=O)N[C@H]1C[C@H]2CC[C@@H](C1)N2c1ccc(NC(=O)CC(F)(F)F)cc1Cl [Example 138, N-{3-chloro-4-[3-endo-({2-[(2,4-dichlorophenyl)oxy]-2-methylpropanoyl}amino)-8-azabicyclo[3.2.1]oct-8-yl]phenyl}-3,3,3-trifluoropropanamide] | < 2000
12 | CC(C)(Oc1ccc(Cl)cc1Cl)C(=O)N[C@H]1C[C@H]2CC[C@@H](C1)N2c1ccc(NC(=O)CC(F)(F)F)cc1F [Example 139, N-{4-[3-endo-({2-[(2,4-dichlorophenyl)oxy]-2-methylpropanoyl}amino)-8-azabicyclo[3.2.1]oct-8-yl]-3-fluorophenyl}-3,3,3-trifluoropropanamide] | < 200
13 | CC(C)(Oc1ccc(Cl)cc1Cl)C(=O)N[C@H]1C[C@H]2CC[C@@H](C1)N2c1ccc(S(C)(=O)=O)cn1 [Example 140, 2-[(2,4-dichlorophenyl)oxy]-2-methyl-N-{8-[5-(methylsulfonyl)pyridin-2-yl]-8-azabicyclo[3.2.1]oct-3-endo-yl}propanamide] | < 200
14 | NC(=O)c1ccc(N2[C@@H]3CC[C@H]2C[C@@H](NC(=O)C2(c4ccc(F)c(F)c4)CC2)C3)nc1 [Example 141, 6-[3-endo-({[1-(3,4-difluorophenyl)cyclopropyl]carbonyl}amino)-8-azabicyclo[3.2.1]oct-8-yl]pyridine-3-carboxamide] | < 200
15 | CC(C)(Oc1ncc(Cl)cc1F)C(=O)N[C@H]1C[C@H]2CC[C@@H](C1)N2c1ccc(C(N)=O)cn1 [Example 142, 6-[3-endo-({2-[(5-chloro-3-fluoropyridin-2-yl)oxy]-2-methylpropanoyl}amino)-8-azabicyclo[3.2.1]oct-8-yl]pyridine-3-carboxamide] | < 200
16 | CC(C)(Oc1ccc(Cl)cc1Cl)C(=O)N[C@H]1C[C@H]2CC[C@@H](C1)N2c1cc(C(=O)NC2CC2)ccn1 [Example 143, N-cyclopropyl-2-[3-endo-({2-[(2,4-dichlorophenyl)oxy]-2-methylpropanoyl}amino)-8-azabicyclo[3.2.1]oct-8-yl]pyridine-4-carboxamide] | < 2000
17 | CC(C)(Oc1ccc(Cl)cc1C(F)(F)F)C(=O)N[C@H]1C[C@H]2CC[C@@H](C1)N2c1ccc(C(=O)NCC(F)(F)F)cn1 [Example 144, 6-{3-endo-[(2-{[4-chloro-2-(trifluoromethyl)phenyl]oxy}-2-methylpropanoyl)amino]-8-azabicyclo[3.2.1]oct-8-yl}-N-(2,2,2-trifluoroethyl)pyridine-3-carboxamide] | < 200
18 | CC(C)(Oc1ccc(F)cc1C(F)(F)F)C(=O)N[C@H]1C[C@H]2CC[C@@H](C1)N2c1ccc(C(=O)NCC(F)(F)F)cn1 [Example 145, 6-{3-endo-[(2-{[4-fluoro-2-(trifluoromethyl)phenyl]oxy}-2-methylpropanoyl)amino]-8-azabicyclo[3.2.1]oct-8-yl}-N-(2,2,2-trifluoroethyl)pyridine-3-carboxamide] | < 200
19 | CC(C)(Oc1ccc(Cl)cc1Cl)C(=O)N[C@H]1C[C@H]2CC[C@@H](C1)N2c1ccc(NC(=O)C(F)(F)F)cn1 [Example 146, 2-[(2,4-dichlorophenyl)oxy]-2-methyl-N-(8-{5-[(trifluoroacetyl)amino]pyridin-2-yl}-8-azabicyclo[3.2.1]oct-3-endo-yl)propanamide] | < 200
20 | CC(C)(Oc1ccc(Cl)cc1Cl)C(=O)N[C@H]1C[C@H]2CC[C@@H](C1)N2c1ccc(NC(=O)CC(F)(F)F)cn1 [Example 147, N-{6-[3-endo-({2-[(2,4-dichlorophenyl)oxy]-2-methylpropanoyl}amino)-8-azabicyclo[3.2.1]oct-8-yl]pyridin-3-yl}-3,3,3-trifluoropropanamide] | < 200
21 | O=C(NC1CC1)c1ccc(N2[C@@H]3CC[C@H]2C[C@@H](NC(=O)C2(c4ccc(Cl)cc4)CC2)C3)c(F)c1 [Example 148, 4-[3-endo-({[1-(4-chlorophenyl)cyclopropyl]carbonyl}amino)-8-azabicyclo[3.2.1]oct-8-yl]-N-cyclopropyl-3-fluorobenzamide] | < 200
22 | CC(C)(Oc1ncc(C(F)(F)F)cc1Cl)C(=O)N[C@H]1C[C@H]2CC[C@@H](C1)N2c1ccc(C(N)=O)cn1 [Example 149, 6-{3-endo-[(2-{[3-chloro-5-(trifluoromethyl)pyridin-2-yl]oxy}-2-methylpropanoyl)amino]-8-azabicyclo[3.2.1]oct-8-yl}pyridine-3-carboxamide] | < 200
23 | CC(C)(Oc1ccc(C(F)(F)F)cn1)C(=O)N[C@H]1C[C@H]2CC[C@@H](C1)N2c1ccc(C(N)=O)cn1 [Example 150] | < 200
24 | CC(C)(Oc1ncc(C(F)(F)F)cc1Cl)C(=O)N[C@H]1C[C@H]2CC[C@@H](C1)N2c1ccc(C(=O)NCC(F)(F)F)cn1 [Example 151, 6-{3-endo-[(2-{[3-chloro-5-(trifluoromethyl)pyridin-2-yl]oxy}-2-methylpropanoyl)amino]-8-azabicyclo[3.2.1]oct-8-yl}-N-(2,2,2-trifluoroethyl)pyridine-3-carboxamide] | < 200
25 | CC(C)(Oc1ccc(C(F)(F)F)cn1)C(=O)N[C@H]1C[C@H]2CC[C@@H](C1)N2c1ccc(C(=O)NCC(F)(F)F)cn1 [Example 152, 6-{3-endo-[(2-methyl-2-{[5-(trifluoromethyl)pyridin-2-yl]oxy}propanoyl)amino]-8-azabicyclo[3.2.1]oct-8-yl}-N-(2,2,2-trifluoroethyl)pyridine-3-carboxamide] | < 2000
26 | CC(C)(Oc1ccc(F)c(Cl)c1Cl)C(=O)N[C@H]1C[C@H]2CC[C@@H](C1)N2c1ccc(S(C)(=O)=O)cn1 [Example 153, 2-[(2,3-dichloro-4-fluorophenyl)oxy]-2-methyl-N-{8-[5-(methylsulfonyl)pyridin-2-yl]-8-azabicyclo[3.2.1]oct-3-endo-yl}propanamide] | < 200
27 | CC(C)(Oc1cc(Cl)c(F)cc1Cl)C(=O)N[C@H]1C[C@H]2CC[C@@H](C1)N2c1ccc(S(C)(=O)=O)cn1 [Example 154, 2-[(2,5-dichloro-4-fluorophenyl)oxy]-2-methyl-N-{8-[5-(methylsulfonyl)pyridin-2-yl]-8-azabicyclo[3.2.1]oct-3-endo-yl}propanamide] | < 200
